Results on 16 compounds are retold here after patent US9873709B2 (priority 2013, dated 2018).

For experiment [1], the system named is JAK1-dependent STAT6 phosphorylation downstream of IL-13 stimulation in TF-1 human erythroleukemia cells. The experiment can be described thus: cells. Conditions: TF-1, read-out: IL-13-pSTAT6 IC50.
Experiment [2] deals with JAK1-dependent STAT6 phosphorylation downstream of IL-13 stimulation in BEAS-2B human bronchial epithelial cells. Nature of the experiment: cells. Conditions: read-out: IL13-pSTAT6 BEASB2B IC50.

Usually IC50 stands for the concentration needed to halve the response being measured. `CN(C)c1cc(CC2CCN(C(=O)c3ccc(Nc4nc5c(N6CCC(O)(c7ccc(Cl)cc7)CC6)cccn5n4)cc3)C2)ncn1` (centres unmarked) [Example 1-151, [4-[[8-[4-(4-chlorophenyl)-4-hydroxy-1-piperidyl]-[1,2,4]triazolo[1,5-a]pyridin-2-yl]amino]phenyl]-[3-[[6-(dimethylamino)pyrimidin-4-yl]methyl]pyrrolidin-1-yl]methanone]: the IC50 in experiment [1] turned out to be 107 nM; in experiment [2], 167 nM.
In the same order, the values of `O=C(NCCc1ccncc1)c1ccc(Nc2nc3c(N4CCC(O)(c5ccc(Cl)cc5)CC4)cccn3n2)cc1` [Example 1-161, 4-[[8-[4-(4-chlorophenyl)-4-hydroxy-1-piperidyl]-[1,2,4]triazolo[1,5-a]pyridin-2-yl]amino]-N-[2-(4-pyridyl)ethyl]benzamide] are 23.4 nM and 48.5 nM.
On the same counts, the results for `CN1CCC(N(C)C(=O)c2ccc(Nc3nc4c(N5CCC(CCO)(c6ccc(Cl)cc6)CC5)cccn4n3)cc2)CC1` [Example 1-255, 4-[[8-[4-(4-chlorophenyl)-4-(2-hydroxyethyl)-1-piperidyl]-[1,2,4]triazolo[1,5-a]pyridin-2-yl]amino]-N-methyl-N-(1-methyl-4-piperidyl)benzamide; formic acid] are 27.1 nM and 159 nM.
In the same order, the values of `COCC1(c2ccc(Cl)cc2)CCN(c2cccn3nc(Nc4ccc(C(=O)N(C)C5CCN(C)CC5)cc4)nc23)CC1` [Example 1-258, 4-[[8-[4-(4-chlorophenyl)-4-(methoxymethyl)-1-piperidyl]-[1,2,4]triazolo[1,5-a]pyridin-2-yl]amino]-N-methyl-N-(1-methyl-4-piperidyl)benzamide; formic acid] are 93.4 nM and 1440 nM.
Consider `CN1CCC2CN(C(=O)c3ccc(Nc4nc5c(N6CCC(CO)(c7ccc(Cl)cc7)CC6)cccn5n4)cc3)CC21` (centres unmarked) [Example 1-275, [4-[[8-[4-(4-chlorophenyl)-4-(hydroxymethyl)-1-piperidyl]-[1,2,4]triazolo[1,5-a]pyridin-2-yl]amino]phenyl]-(1-methyl-2,3,3a,4,6,6a-hexahydropyrrolo[2,3-c]pyrrol-5-yl)methanone], for which the results for the IC50 in experiment [1] and in experiment [2] were 3 nM and 55.5 nM, respectively.
On the same counts, the results for `O=C(c1ccc(Nc2nc3c(N4CCC(CO)(c5ccc(Cl)cc5)CC4)cccn3n2)cc1)N1CCC(c2ccccn2)CC1` [Example 1-276, [4-[[8-[4-(4-chlorophenyl)-4-(hydroxymethyl)-1-piperidyl]-[1,2,4]triazolo[1,5-a]pyridin-2-yl]amino]phenyl]-[4-(2-pyridyl)-1-piperidyl]methanone] are 95.7 nM and 82 nM.
With `C[C@H]1CN(CCNC(=O)c2ccc(Nc3nc4c(N5CCC(CO)(c6ccc(Cl)cc6)CC5)cccn4n3)cc2)C[C@H](C)O1` [Example 1-277, 4-[[8-[4-(4-chlorophenyl)-4-(hydroxymethyl)-1-piperidyl]-[1,2,4]triazolo[1,5-a]pyridin-2-yl]amino]-N-[2-[(2S,6S)-2,6-dimethylmorpholin-4-yl]ethyl]benzamide], the IC50 in experiment [1] was found to be 23.1 nM; in experiment [2] it was 73.3 nM.
Take `C[C@@H]1CN(CCNC(=O)c2ccc(Nc3nc4c(N5CCC(CO)(c6ccc(Cl)cc6)CC5)cccn4n3)cc2)C[C@H](C)O1` [Example 1-278, 4-[[8-[4-(4-chlorophenyl)-4-(hydroxymethyl)-1-piperidyl]-[1,2,4]triazolo[1,5-a]pyridin-2-yl]amino]-N-[2-[(2R,6S)-2,6-dimethylmorpholin-4-yl]ethyl]benzamide]: the results for the IC50 in experiment [1] and in experiment [2] were 16.3 nM and 37.6 nM, respectively.
Take `O=C(c1ccc(Nc2nc3c(N4CCC(CO)(c5ccc(Cl)cc5)CC4)cccn3n2)cc1)N1CCC(c2ccncc2)C1` (centres unmarked) [Example 1-279, [4-[[8-[4-(4-chlorophenyl)-4-(hydroxymethyl)-1-piperidyl]-[1,2,4]triazolo[1,5-a]pyridin-2-yl]amino]phenyl]-[3-(4-pyridyl)pyrrolidin-1-yl]methanone]: the values for the IC50 in experiment [1] and in experiment [2] were 28.1 nM and 34.6 nM, respectively.
Consider `O=C(NC1CCN(C2CCCC2)CC1)c1ccc(Nc2nc3c(N4CCC(CO)(c5ccc(Cl)cc5)CC4)cccn3n2)cc1` [Example 1-280, 4-[[8-[4-(4-chlorophenyl)-4-(hydroxymethyl)-1-piperidyl]-[1,2,4]triazolo[1,5-a]pyridin-2-yl]amino]-N-(1-cyclopentyl-4-piperidyl)benzamide], for which the half-inhibitory concentration (IC50) in experiment [1] stood at 124 nM; in experiment [2] it was 52.8 nM.
In the same order, the values of `C[C@H]1CN(C2CCN(C(=O)c3ccc(Nc4nc5c(N6CCC(CO)(c7ccc(Cl)cc7)CC6)cccn5n4)cc3)CC2)C[C@H](C)O1` [Example 1-281, [4-[[8-[4-(4-chlorophenyl)-4-(hydroxymethyl)-1-piperidyl]-[1,2,4]triazolo[1,5-a]pyridin-2-yl]amino]phenyl]-[4-[(2S,6S)-2,6-dimethylmorpholin-4-yl]-1-piperidyl]methanone] are 70.2 nM and 134 nM.
In the same order, the values of `C[C@@H]1CN(C2CCN(C(=O)c3ccc(Nc4nc5c(N6CCC(CO)(c7ccc(Cl)cc7)CC6)cccn5n4)cc3)CC2)C[C@H](C)O1` [Example 1-282, [4-[[8-[4-(4-chlorophenyl)-4-(hydroxymethyl)-1-piperidyl]-[1,2,4]triazolo[1,5-a]pyridin-2-yl]amino]phenyl]-[4-[(2R,6S)-2,6-dimethylmorpholin-4-yl]-1-piperidyl]methanone] are 42.6 nM and 55.6 nM.
On the same counts, the results for `CC(C)(CNC(=O)c1ccc(Nc2nc3c(N4CCC(CO)(c5ccc(Cl)cc5)CC4)cccn3n2)cc1)N1CCOCC1` [Example 1-285, 4-[[8-[4-(4-chlorophenyl)-4-(hydroxymethyl)-1-piperidyl]-[1,2,4]triazolo[1,5-a]pyridin-2-yl]amino]-N-(2-methyl-2-morpholino-propyl)benzamide] are 22.1 nM and 57.6 nM.
As for `CCN(Cc1ccncc1)C(=O)c1ccc(Nc2nc3c(N4CCC(CO)(c5ccc(Cl)cc5)CC4)cccn3n2)cc1` [Example 1-287, 4-[[8-[4-(4-chlorophenyl)-4-(hydroxymethyl)-1-piperidyl]-[1,2,4]triazolo[1,5-a]pyridin-2-yl]amino]-N-ethyl-N-(4-pyridylmethyl)benzamide], the 50% inhibitory concentration (IC50) was 22.5 nM in experiment [1] and 36.4 nM in experiment [2].
In the same order, the values of `O=C(c1ccc(Nc2nc3c(N4CCC(CO)(c5ccc(Cl)cc5)CC4)cccn3n2)cc1)N1CCCC1c1ccncc1` (centres unmarked) [Example 1-288, [4-[[8-[4-(4-chlorophenyl)-4-(hydroxymethyl)-1-piperidyl]-[1,2,4]triazolo[1,5-a]pyridin-2-yl]amino]phenyl]-[2-(4-pyridyl)pyrrolidin-1-yl]methanone] are 28 nM and 67.7 nM.
On the same counts, the results for `CN1CC[C@H]2CN(C(=O)c3ccc(Nc4nc5c(C6=CCN(C(=O)CCC(F)(F)F)CC6)cccn5n4)cc3)C[C@H]21` [Example 2-38, 1-[4-[2-[4-[(3aS,6aS)-1-methyl-2,3,3a,4,6,6a-hexahydropyrrolo[3,4-b]pyrrole-5-carbonyl]anilino]-[1,2,4]triazolo[1,5-a]pyridin-8-yl]-3,6-dihydro-2H-pyridin-1-yl]-4,4,4-trifluoro-butan-1-one] are 2.9 nM and 28.6 nM.
